Results on six compounds are retold here after article PMC10744608, “Simplified Synthesis of Renieramycin T Derivatives to Target Cancer Stem Cells via β-Catenin Proteasomal Degradation in Human Lung Cancer” (Marine Drugs, 2023).

Each structure is given as a SMILES string.

What all share (type): cell-based, human
The subject of assay [1] is NSCLC cells (A549, H23, and H292). The assay can be described thus: MTT cell viability assay, statements over all lung cancer lines. Particulars: summary over A549, H23 and H292, 24 h. As to the method:
(§1) The cell viability was assessed using an MTT assay, determining the half-maximal inhibitory concentration (IC50) to screen right-half RT analogs (DH_18, DH_21, DH_32, DH_35, DH_38, and DH_39). Human NSCLC cells (A549, H23, and H292) were seeded in a 96-well cell culture plate at a density of 1 × 10^4 cells per well and incubated for 24 h at 37 °C. Subsequently, the culture medium was aspirated, and a complete medium with varying concentrations (0–100 μM) of right-half RT analogs was added for 24 h. Following the removal of the compound-containing medium, an MTT reagent at a concentration of 4 mg/mL was applied and incubated for 3 h at 37 °C. The MTT reagent was replaced with 100 μL of DMSO to dissolve the formazan crystals. The measurement of the formazan product was conducted at 570 nm utilizing a microplate reader. RT served as the positive control in this experiment.

For a further assay, the system named is H23 cells. Briefly: MTT cell viability assay. Particulars: Homo sapiens, NCI-H23, H23, 24 h treatment. How it is done: as §1
On the technique in general: Formazan colour is commonly taken as a measure of viable cells.

For the next assay, the system named is A549 cells. The assay can be described thus: MTT cell viability assay. Conditions: Homo sapiens, A549, 24 h treatment. As to the method: as §1
The next assay deals with H292 cells. The assay can be described thus: MTT cell viability assay. Particulars: Homo sapiens, NCI-H292, H292, 24 h treatment. As to the method: as §1
Assay [2] deals with CSC spheroids of A549, H23, and H292 cells. The assay can be described thus: 3D CSC spheroid formation with immunofluorescence. Particulars: 50 nM, 24 h, immunofluorescence. As to the method: A three-dimensional (3D) spheroid was employed to generate the spheroids containing CSC subpopulations from lung cancer cells. For CSC-rich population establishment, the spheroid culture assay used in this study was slightly modified from a previously described method. Lung cancer cells, specifically NSCLC cells (A549, H23, and H292), were seeded onto a 24-well ultra-low attachment plate, with approximately density of 2.5 × 10^3 cells per well in a medium with a 1% FBS and Nutristem mix. The primary spheroids were allowed to form for 7 days. Every 2 days, fresh medium with 1% FBS and Nutristem mix was replenished. On day 7 of primary spheroid culture, primary spheroids were resuspended into single cells using trypsin, and again 2.5 × 10^3 cells/well were seeded into a 24-well ultra-low attachment plate. Secondary spheroids were allowed to form for 10 days. After 10 days, the secondary spheroids were treated with 50 nM concentration DH_32 for 24 h treatment. The spheroids that had undergone treatment were retrieved through centrifugation at 1000× g for 30 s and then rinsed with PBS. The spheroids were fixed with 4% paraformaldehyde in a 50 μL PBS solution for 20 min at room temperature, and then they were made permeable by treating them with 0.1% Triton X in PBS for 5 min at room temperature. The spheroids were exposed to a mixture of 5% FBS and 2% BSA in PBS for 1 h at room temperature to prevent non-specific protein interactions. Subsequently, the spheroids were incubated with primary antibodies (CD133, CD44, and OCT4) at a 1:250 dilution in a 30 μL PBS solution containing 2.5% FBS and 1% BSA, and this incubation took place overnight at 4 °C. On the subsequent day, the spheroids were rinsed with PBS and then exposed to secondary antibodies (Alexa Fluor 594-conjugated goat anti-rabbit IgG (H+L) and Alexa Fluor 488-conjugated goat anti-mouse IgG (H+L)) at a 1:500 dilution in a 30 μL PBS solution containing 2.5% FBS and 1% BSA at room temperature for 1 h 30 min. These spheroids were subjected to staining with Hoechst 33342 (Sigma, St. Louis, MO, USA) at a concentration of 10 μg/mL for a duration of 15 min at room temperature. Subsequently, the fluorescence signals were observed using a fluorescence microscope (Olympus IX 51 with DP70; Olympus America Inc., Center Valley, PA, USA). The intensity of fluorescence was quantified using Image J software. NSCLC spheroids treated with RT at 50 nM and cisplatin at 50 nM served as the positive control.

In general, IC50 refers to the concentration needed to halve the response being measured. Higher therefore signals weaker potency in that assay. For the compound `COC1=C(C)C(=O)C2=C(C1=O)[C@@H]1CN(Cc3ccccn3)[C@@H](C#N)[C@H](C2)N1C` [DH_18, (1R,4R,5S)-9-methoxy-8,11-dimethyl-7,10-dioxo-3-(pyridin-2-ylmethyl)-1,2,3,4,5,6,7,10-octahydro-1,5-epiminobenzo[d]azocine-4-carbonitrile], the IC50 is 28 to 77 µM in assay [1] (Homo sapiens, 24 h); roughly 30 µM in assay [1]; 28.1 ± 0.83 µM in the assay on H23 cells; 28 ± 0.86 µM with A549 cells; 29.5 ± 0.75 µM in the assay with H292 cells.
As for `COC1=C(C)C(=O)C2=C(C1=O)[C@@H]1CN(Cc3cccnc3)[C@@H](C#N)[C@H](C2)N1C` [DH_21, (1R,4R,5S)-9-methoxy-8,11-dimethyl-7,10-dioxo-3-(pyridin-3-ylmethyl)-1,2,3,4,5,6,7,10-octahydro-1,5-epiminobenzo[d]azocine-4-carbonitrile], the IC50 is 28 to 77 µM in assay [1] (Homo sapiens, 24 h); 49.4 ± 1.01 µM in the assay with H23 cells; 51.4 ± 1.5 µM with A549 cells; 54.1 ± 1.15 µM in the assay on H292 cells.
On the same counts, the results for `C#CCN1C[C@H]2C3=C(C[C@@H]([C@@H]1C#N)N2C)C(=O)C(C)=C(OC)C3=O` [DH_35, (1R,4R,5S)-9-methoxy-8,11-dimethyl-7,10-dioxo-3-(prop-2-yn-1-yl)-1,2,3,4,5,6,7,10-octahydro-1,5-epiminobenzo[d]azocine-4-carbonitrile] are 28 to 77 µM, 56 ± 1.78 µM, 76.3 ± 2.98 µM and 57.7 ± 1.45 µM.
Regarding `COC1=C(C)C(=O)C2=C(C1=O)[C@@H]1CN(CCO)[C@@H](C#N)[C@H](C2)N1C` [DH_38, (1R,4R,5S)-3-(2-hydroxyethyl)-9-methoxy-8,11-dimethyl-7,10-dioxo-1,2,3,4,5,6,7,10-octahydro-1,5-epiminobenzo[d]azocine-4-carbonitrile], the IC50 in assay [1] (Homo sapiens, 24 h) was 28 to 77 µM; in the assay with H23 cells it was 50.4 ± 1.18 µM; in the assay with A549 cells, 43.8 ± 1.43 µM; in the assay with H292 cells, 43.7 ± 0.86 µM.
On the same counts, the results for `COC1=C(C)C(=O)C2=C(C1=O)[C@@H]1CN(CCN3C(=O)c4ccccc4C3=O)[C@@H](C#N)[C@H](C2)N1C` [DH_39, (1R,4R,5S)-3-(2-{1,3-dioxoisoindolin-2-yl}ethyl)-9-methoxy-8,11-dimethyl-7,10-dioxo-1,2,3,4,5,6,7,10-octahydro-1,5-epiminobenzo[d]azocine-4-carbonitrile] are 28 to 77 µM, 73.3 ± 1.17 µM, 70 ± 0.85 µM and 65.4 ± 1.13 µM.
In the case of `N.N.[Cl][Pt][Cl]` [cisplatin, reference compound], the “levels of CD133, CD44, and OCT4 in CSC spheroids” value in assay [2] is on record as “could not alter CSC markers”.
